Experimental data published in publication PMC10779222, “Copper(II) Complexes with 1-(Isoquinolin-3-yl)heteroalkyl-2-ones: Synthesis, Structure and Evaluation of Anticancer, Antimicrobial and Antioxidant Potential” (International Journal of Molecular Sciences, 2023).

Assays:
A375 (melanoma) = assay: MTT cytotoxicity assay on A375 cells; type: cell-based, human; conditions: 24 h incubation
Experimental: Cytotoxic activity of the investigated compounds was evaluated against T98G (glioblastoma), HepG2 (hepatoma), LS-180 (colon cancer) and A375 (melanoma) cell lines. Human normal skin fibroblasts, CCD-1059Sk (CRL-2072), were used as reference (non-cancerous) cells. All of the cell lines were obtained from American Type Culture Collection (ATCC; Manassas, VA, USA). A375, T98G and CCD-1059Sk cells were cultured in Dulbecco’s Modified Eagle’s Medium (DMEM) (Sigma Aldrich, St. Louis, MO, USA) supplemented with 10% FBS, penicillin (100 U/mL) and streptomycin (100 μg/mL). LS-180 and HepG2 cells were cultured in Eagle’s Minimum Essential Medium supplemented with 10% FBS, penicillin (100 U/mL) and streptomycin (100 μg/mL). All of the cells were maintained at 37 °C in a humidified atmosphere of 5% CO2. The compounds were dissolved in DMSO in order to obtain stock solutions. At the day of the experiment, the suspension of cells (1 × 10^5 cells/mL) was distributed onto 96-well plates at a volume of 100 μL/well. After attachment, the cells were treated with the increased concentrations of the tested compounds in medium containing 2% FBS and incubated for 24 h. Then, the medium was removed from wells, and cells were rinsed with PBS. Afterwards, 15 μL of MTT working solution (5 mg/mL in PBS) was added to each well, and the plates were incubated for 3 h. Subsequently, 100 μL of 10% SDS solution was added to each well in order to dissolve the precipitated formazan crystals. After overnight incubation at 37 °C, the absorbance of the obtained solution was measured at λ = 570 nm using a microplate reader (Epoch, BioTek Instruments, Inc., Winooski, VT, USA). At least two independent experiments were performed in triplicate. […] IC50 values of the investigated derivatives and positive control (etoposide) were calculated using the IC50 online calculator [101].

T98G cells = conditions: C2 at 0.25 µg/mL (non-cytotoxic), drugs at IC50 or 100 µg/mL, 24 h, MTT
Experimental: Next, T98G or HepG2 cells were incubated for 24 h with medium containing a mixture of the respective drugs mixed with the highest non-toxic concentration of C2 (CX). The viability of cells was evaluated using MTT assay, as described above. ANOVA analysis (with Tukey’s post hoc test) was performed in order to examine the possible interactions between compound C2 (CX) and ETO, CIS, 5-FU and TMZ.

[1] = system: Candida albicans ATCC 102231; assay: Two-fold microdilution broth method, MIC; type: cell-based; conditions: 35 °C, 24 h
From the text: (§1) Antibacterial and antifungal activities of the free ligands L2, L3 and L4 and the corresponding copper(II) complexes C2, C3 and C4 were screened using the two-fold microdilution broth method. Minimal inhibitory concentrations (MICs) of tested compounds for the panel of reference Gram-positive bacteria, including Staphylococcus aureus ATCC 25923, Staphylococcus aureus ATCC BAA-1707, Staphylococcus epidermidis ATCC 12228, Micrococcus luteus ATCC 10240 and Bacillus cereus ATCC 10876; Gram-negative bacteria, including Salmonella Typhimurium ATCC 14028, Escherichia coli ATCC 25922, Proteus mirabilis ATCC 12453, Klebsiella pneumoniae ATCC 13883 and Pseudomonas aeruginosa ATCC 9027; and yeasts, including Candida albicans ATCC 102231, Candida parapsilosis ATCC 22019 and Candida glabrata ATCC 90030 were determined. The procedure has been described in detail before. Briefly, the solutions of tested compounds dissolved in dimethylosulfoxide (DMSO) were suspended in Mueller–Hinton broth for bacteria or Mueller–Hinton broth with 2% glucose for fungi. Then, the series of two-fold dilutions were carried out in the sterile Nunc™ MicroWell™ 96-Well Microplates (ThermoFisher Scientific Inc.), obtaining concentrations from 1000 to 7.8 mg/L in the appropriate medium. Simultaneously, the inocula of 24 h cultures of microorganisms in sterile physiological saline (0.5 McFarland standard density) were prepared and added to each well, obtaining final density of 5 × 10^5 CFU/mL for bacteria and 5 × 10^4 CFU/mL for yeasts. Proper positive (inoculum without tested compound) and negative (compound without inoculum) controls were added in each microplate. After incubation (35 °C, 24 h), the growth of microorganisms was measured spectrophotometrically at 600 nm (BioTEK ELx808, Bio-Tek Instruments, Inc., Winooski, VT, USA). MICs were marked at the lowest concentration of the compound without the growth of bacteria or fungi.

[2] = system: Candida glabrata ATCC 90030; assay: Two-fold microdilution broth method, MIC; type: cell-based; conditions: 35 °C, 24 h
From the text: as §1

[3] = system: Candida parapsilosis ATCC 22019; assay: Two-fold microdilution broth method, MIC; type: cell-based; conditions: 35 °C, 24 h
From the text: as §1

Structure (SMILES): O=C1NCCN1c1cc2ccccc2cn1.O=C1NCCN1c1cc2ccccc2cn1.[Cl][Cu][Cl] [C2, Dichloro{bis[1-(Isoquinolin-3-yl)imidazolidin-2-one]}copper(II)]
- IC50 ± SD, A375 (A375 (melanoma)): 28.91 ± 1.79 µg/mL
- effect on cytotoxicity of anticancer drugs, T98G (T98G cells): statistically significantly improved the cytotoxic effects of ETO, 5-FU and TMZ
- MIC, C. albicans ATCC 102231 [1]: 1000 µg/mL
- MIC, C. glabrata ATCC 90030 [2]: >1000 µg/mL
- MIC, C. parapsilosis ATCC 22019 [3]: 1000 µg/mL
